# Laboratory results published in patent US20250257060A1, “OXADIAZOLE COMPOUND, PHARMACEUTICAL COMPOSITION COMPRISING SAME, AND USE THEREOF” (SUZHOU GENHOUSE BIO CO., LTD., priority 2022, published 2025).
# Where two headings read alike, the source gives them in different places.
# How the values were obtained:
# HDAC1 = HDAC1 (Homo sapiens (Human), UniProt Q13547); experiment: HDAC subtype enzymatic activity assay, HDAC1; assay type: biochemical; settings: read-out: HADC1 Inhibition rate (%)
# Method: The inhibitory activity of the compounds of the present application on HDAC1-5 and 7-11 was evaluated by an enzymatic activity assay.
# 1 M Trypsin and 10 M TSA were added, and the plate was incubated at room temperature for 15 min. […] IC50 was obtained by fitting using GraphPadPrism 7.0 software.
# [1] = tested on: acetylation level of α-tubulin in A375 cells; experiment: Assay on acetylation level of α-tubulin, A375 cells; assay type: cell-based; settings: Homo sapiens, A-375, 6 h
# Method: A375/HCT116/HCC827 cells at a logarithmic growth phase were taken, digested with a […] (trypsin), centrifuged, counted, and plated in a 96-well plate at an appropriate cell density (30,000 cells/well) at 100 µL/well, and an appropriate amount of PBS was added around the plate for water sealing. The next day, the cells were treated with the compounds at different concentrations (starting at 100 μM, 5-fold dilution, 9 concentration gradients). After 6 h, the medium was pipetted out and the cells were washed twice with 100 μL of PBST. The cells were then immobilized in 4% paraformaldehyde, and the plate was incubated at room temperature for 20 min. The stationary liquid was discarded and the cells were washed with PBST. 150 μL of special blocking buffer (containing 1% Triton-100) was added to each well for blocking at room temperature for 2 h, and the plate was washed with PBS to remove excess blocking buffer. α-tubulin (DM1A) mouse mAb and acetyl-α-tubulin (Lys40) (D20G3) XP rabbit mAb were diluted at a 1:2000 ratio with a blocking buffer containing 0.033% Triton-100. The dilutions were added to the 96-well plate and the plate was incubated overnight at 4° C. Meanwhile, a blank control group was set. The next day, the plate was washed twice with PBST. […] Fluorescence signals at 700 nm and 800 nm were detected with a Li-COR Odyssey two-color near-infrared laser imager.
# [2] = tested on: acetylation level of α-tubulin in HCT116 cells; experiment: Assay on acetylation level of α-tubulin, HCT116 cells; assay type: cell-based; settings: Homo sapiens, HCT-116, 6 h
# Method: A375/HCT116/HCC827 cells at a logarithmic growth phase were taken, digested with a […] (trypsin), centrifuged, counted, and plated in a 96-well plate at an appropriate cell density (30,000 cells/well) at 100 µL/well, and an appropriate amount of PBS was added around the plate for water sealing. The next day, the cells were treated with the compounds at different concentrations (starting at 100 μM, 5-fold dilution, 9 concentration gradients). After 6 h, the medium was pipetted out and the cells were washed twice with 100 μL of PBST. The cells were then immobilized in 4% paraformaldehyde, and the plate was incubated at room temperature for 20 min. The stationary liquid was discarded and the cells were washed with PBST. 150 μL of special blocking buffer (containing 1% Triton-100) was added to each well for blocking at room temperature for 2 h, and the plate was washed with PBS to remove excess blocking buffer. α-tubulin (DM1A) mouse mAb and acetyl-α-tubulin (Lys40) (D20G3) XP rabbit mAb were diluted at a 1:2000 ratio with a blocking buffer containing 0.033% Triton-100. The dilutions were added to the 96-well plate and the plate was incubated overnight at 4° C. Meanwhile, a blank control group was set. The next day, the plate was washed twice with PBST. Secondary anti-mouse IgG (H+L) (DyLight™ 680 conjugate) and anti-rabbit IgG (H+L) (DyLight™ 800 conjugate) were diluted at a 1:2000 ratio with a blocking buffer containing 0.033% Triton-100. The dilutions were added to a 96-well plate and the plate was incubated at room temperature for 2 h. The plate was washed twice with PBST and once with PBS. Fluorescence signals at 700 nm and 800 nm were detected with a Li-COR Odyssey two-color near-infrared laser imager.
# [3] = Brain-to-blood drug concentration ratio of mice; assay type: in vivo; settings: mouse; for Kp at 1 h / Kp at 4 h: brain/plasma
# In short: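 Mice (9/group) dosed once IV or PO; orbital blood into K2-EDTA tubes for plasma, with brain homogenate, processed by acetonitrile precipitation (propafenone internal standard) and measured by LC-MS/MS. Ratio taken as brain tissue concentration over plasma concentration at the same time point.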
# [4] = brain, 2 mg/kg IV, read-out: Brain drug concentration
# [5] = brain, 10 mg/kg PO, read-out: Brain drug concentration
# [6] = plasma, 2 mg/kg IV, read-out: Blood drug concentration
# [7] = plasma, 10 mg/kg PO, read-out: Blood drug concentration
# HDAC1, sequence (Q13547 whole entry): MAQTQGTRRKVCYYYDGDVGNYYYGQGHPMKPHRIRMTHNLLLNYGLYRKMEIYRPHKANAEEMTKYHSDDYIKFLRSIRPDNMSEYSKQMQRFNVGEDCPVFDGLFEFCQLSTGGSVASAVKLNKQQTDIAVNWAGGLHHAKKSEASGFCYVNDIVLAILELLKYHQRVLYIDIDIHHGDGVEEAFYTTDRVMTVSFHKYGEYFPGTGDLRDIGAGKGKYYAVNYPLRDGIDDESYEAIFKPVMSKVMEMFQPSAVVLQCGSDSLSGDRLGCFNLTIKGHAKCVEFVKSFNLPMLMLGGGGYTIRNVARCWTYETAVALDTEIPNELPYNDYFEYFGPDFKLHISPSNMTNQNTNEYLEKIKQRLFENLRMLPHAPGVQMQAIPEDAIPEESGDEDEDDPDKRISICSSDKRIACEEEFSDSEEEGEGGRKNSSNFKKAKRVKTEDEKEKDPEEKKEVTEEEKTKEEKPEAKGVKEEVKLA
compound,measurement,setting,value
O=C(N[C@@H]1CCCC[C@H]1N1Cc2ccc(-c3nnc(C(F)F)o3)cc2S1(=O)=O)C(F)F [Compound 2],inhibition at 1 µM,HDAC1,-11.9%
same,inhibition at 10 µM,HDAC1,-3.91%
same,EC50,[1],202 ± 115 nM
same,EC50,[2],140 ± 39.1 nM
same,concentration at 1 h,[3]; [4],268 ng/mL
same,concentration at 4 h,[3]; [4],149 ng/mL
same,concentration at 1 h,[3]; [5],882 ng/mL
same,concentration at 4 h,[3]; [5],435 ng/mL
same,Kp at 1 h,[3]; 2 mg/kg IV,0.26
same,Kp at 4 h,[3]; 2 mg/kg IV,0.25
same,Kp at 1 h,[3]; 10 mg/kg PO,0.18
same,Kp at 4 h,[3]; 10 mg/kg PO,0.15
same,concentration at 1 h,[3]; [6],1090 ng/mL
same,concentration at 4 h,[3]; [6],595 ng/mL
same,concentration at 1 h,[3]; [7],4990 ng/mL
same,concentration at 4 h,[3]; [7],2830 ng/mL
O=C(N[C@H]1[C@H](N2Cc3ccc(-c4nnc(C(F)F)o4)cc3S2(=O)=O)CCCC1(F)F)C(F)F [Compound 61],EC50,[2],195 nM
CC(F)(F)C(=O)N[C@@H]1CCCC[C@H]1N1Cc2ccc(-c3nnc(C(F)F)o3)cc2S1(=O)=O [Compound 1],inhibition at 1 µM,HDAC1; 1 μM,8.57%
same,inhibition at 10 µM,HDAC1; 10 μM,-3.17%
same,EC50,[1],393 ± 192 nM
same,EC50,[2],262 nM
same,concentration at 1 h,[3]; [4],285 ng/mL
same,concentration at 4 h,[3]; [4],161 ng/mL
same,concentration at 1 h,[3]; [5],759 ng/mL
same,concentration at 4 h,[3]; [5],373 ng/mL
same,Kp at 1 h,[3]; 2 mg/kg IV,0.29
same,Kp at 4 h,[3]; 2 mg/kg IV,0.36
same,Kp at 1 h,[3]; 10 mg/kg PO,0.18
same,Kp at 4 h,[3]; 10 mg/kg PO,0.15
same,concentration at 1 h,[3]; [6],986 ng/mL
same,concentration at 4 h,[3]; [6],453 ng/mL
same,concentration at 1 h,[3]; [7],4270 ng/mL
same,concentration at 4 h,[3]; [7],2500 ng/mL
